Laboratory results published in paper PMC7042063 (Chembiochem : a European journal of chemical biology, 2019).

Legend:
Format in all cases: biochemical
UCHL3 [1] = molecular target: T1, UCHL3 (Homo sapiens, UniProt P15374); experiment: Ub-Rho cleavage assay, purified enzyme, […] min preincubation
T1 sequence (P15374 1-230): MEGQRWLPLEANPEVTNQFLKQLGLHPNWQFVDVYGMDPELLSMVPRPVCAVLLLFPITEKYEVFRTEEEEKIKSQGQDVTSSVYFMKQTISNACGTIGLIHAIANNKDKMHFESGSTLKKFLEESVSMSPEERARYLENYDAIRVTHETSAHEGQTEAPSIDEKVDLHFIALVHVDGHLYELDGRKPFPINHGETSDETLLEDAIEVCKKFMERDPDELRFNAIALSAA

[2] = molecular target: T2, Ubiquitin C-terminal Hydrolase L1 (UCHL1) (Homo sapiens, UniProt P09936); experiment: inhibition IC50 of UCHL1
T2 sequence (P09936 1-220): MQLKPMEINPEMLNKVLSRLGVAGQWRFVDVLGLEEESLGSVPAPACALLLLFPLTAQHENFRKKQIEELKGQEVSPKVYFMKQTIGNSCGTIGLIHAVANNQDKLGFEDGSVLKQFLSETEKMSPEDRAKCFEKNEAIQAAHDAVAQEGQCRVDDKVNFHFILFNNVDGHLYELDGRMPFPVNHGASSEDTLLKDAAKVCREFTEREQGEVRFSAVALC

UCHL3 [3] = molecular target: T1, UCHL3; experiment: Ub-Rho cleavage assay, purified enzyme

IC50 (UCHL3 [1]) [µM]	IC50 [2] [µM]	IC50 (UCHL3 [3]) [µM]	Compound
6.4	–	–	N#CN1CCC[C@H]1C(=O)N1CCc2c(-c3cn[nH]c3C(F)(F)F)cccc21 [compound 1, (S)-2-(4-(5-(trifluoromethyl)-1H-pyrazol-4-yl)indoline-1-carbonyl)pyrrolidine-1-carbonitrile]
–	6.4	5.5	C#CCCn1cc(-c2cccc3c2CCN3C(=O)[C@@H]2CCCN2C#N)c(C(F)(F)F)n1 [compound 2, (S)-2-(4-(1-(but-3-yn-1-yl)-3-(trifluoromethyl)-1H-pyrazol-4-yl)indoline-1-carbonyl)pyrrolidine-1-carbonitrile]
